Reference: ChEMBL document CHEMBL4828781, “Novel Heteroaromatic Carboxamide Derivatives as Plasma Kallikrein Inhibitors for Treating Diabetic Complications, Ocular Diseases and Edema-Associated Diseases” (ACS Med Chem Lett, 2021)
pIC50: −log10 of the molar value.

Biological target: Plasma kallikrein (Homo sapiens, UniProt P03952)
Assay: Inhibition of human plasma kallikrein using […] as fluorogenic substrate measured every 2 mins for 12 mins by microplate reader analysis

Sequence of Plasma kallikrein (P03952 20-390 limits assumed): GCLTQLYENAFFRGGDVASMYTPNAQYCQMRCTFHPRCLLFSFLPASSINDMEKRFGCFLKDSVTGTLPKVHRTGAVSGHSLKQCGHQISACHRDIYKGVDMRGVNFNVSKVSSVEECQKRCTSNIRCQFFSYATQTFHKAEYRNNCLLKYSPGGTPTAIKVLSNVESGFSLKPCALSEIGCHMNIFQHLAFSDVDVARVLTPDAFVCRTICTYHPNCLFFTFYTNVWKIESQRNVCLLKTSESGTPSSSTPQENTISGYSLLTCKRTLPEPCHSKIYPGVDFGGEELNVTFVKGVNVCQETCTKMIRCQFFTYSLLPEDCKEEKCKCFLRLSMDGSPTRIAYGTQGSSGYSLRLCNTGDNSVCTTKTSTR
Sequence of Plasma kallikrein (P03952 391-638 limits assumed): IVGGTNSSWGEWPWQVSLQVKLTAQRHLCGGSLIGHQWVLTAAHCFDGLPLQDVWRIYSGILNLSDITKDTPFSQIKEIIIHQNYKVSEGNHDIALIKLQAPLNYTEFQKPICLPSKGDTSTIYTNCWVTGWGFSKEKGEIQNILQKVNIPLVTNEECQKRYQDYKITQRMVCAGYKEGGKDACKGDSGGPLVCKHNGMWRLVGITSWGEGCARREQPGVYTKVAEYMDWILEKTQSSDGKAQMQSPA

pIC50: 9.52
SMILES: Cc1c(Cn2cnc(C(=O)N[C@@H]3CCc4c3ncn4C)c2)ccc(N2CC3CC3C2)c1C#N (stereo partly specified)
